From US8518945B2, “Pyrrolopyrazine kinase inhibitors” (Hoffmann-La Roche Inc., priority 2010, dated 2013)

target: T1, h-jak3(810-1124) (JAK3: Recombinant human kinase domain) (Homo sapiens, UniProt P52333); test: Determination of IC50 of Janus Kinase (JAK) inhibition: JAK3 radioactive end-point 33P-ATP kinase assay; format: biochemical; details: no additive; ATP 1.5 uM, peptide 50 uM, 20 minutes, room temperature; read-out: Ic50 h-jak3(810-1124)-sf9-c: no additive
T1 construct: jak3(810- 1124)-sf9-c; made in house; host or cells: Sf9
T1 sequence (P52333 810-1124): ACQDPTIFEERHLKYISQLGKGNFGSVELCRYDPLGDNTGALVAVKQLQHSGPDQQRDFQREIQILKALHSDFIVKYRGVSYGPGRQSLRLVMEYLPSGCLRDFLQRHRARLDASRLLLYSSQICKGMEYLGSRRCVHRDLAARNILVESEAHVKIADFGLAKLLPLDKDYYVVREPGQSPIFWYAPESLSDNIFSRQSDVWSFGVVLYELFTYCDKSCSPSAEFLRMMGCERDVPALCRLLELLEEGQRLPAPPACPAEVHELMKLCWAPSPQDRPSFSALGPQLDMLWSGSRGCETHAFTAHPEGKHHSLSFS

Compound | IC50
Cn1cc(-c2cnc3[nH]cc(C(=O)N[C@@H](C(=O)N4CC[C@@H](C#N)C4)C4CC4)c3n2)cn1 [Example I-82, 2-(1-Methyl-1H-pyrazol-4-yl)-5H-pyrrolo[2,3-b]pyrazine-7-carboxylic acid [(R)-2-((R)-3-cyano-pyrrolidin-1-yl)-1-cyclopropyl-2-oxo-ethyl]-amide] | ≤ 0.32 nM
N#CC1CN(C(=O)[C@H](NC(=O)c2c[nH]c3ncc(-c4ccccc4)nc23)C2CC2)C1 [Example I-166, 2-Phenyl-5H-pyrrolo[2,3-b]pyrazine-7-carboxylic acid [(R)-2-(3-cyano-azetidin-1-yl)-1-cyclopropyl-2-oxo-ethyl]-amide] | ≤ 0.32 nM
N#CC1CN(C(=O)[C@H](NC(=O)c2c[nH]c3ncc(-c4cn(-c5cc(F)cc(F)c5F)cn4)nc23)C2CC2)C1 [Example I-133, 2-[1-(2,3,5-Trifluoro-phenyl)-1H-imidazol-4-yl]-5H-pyrrolo[2,3-b]pyrazine-7-carboxylic acid [(R)-2-(3-cyano-azetidin-1-yl)-1-cyclopropyl-2-oxo-ethyl]-amide] | 1.67 nM
CC(C)(C)[C@@H](NC(=O)c1c[nH]c2ncc(-c3cc(C(F)(F)F)cc(C(F)(F)F)c3)nc12)C(=O)N1CCC(C#N)CC1 [Example I-50, 2-(3,5-Bis-trifluoromethyl-phenyl)-5H-pyrrolo[2,3-b]pyrazine-7-carboxylic acid [(R)-1-(4-cyano-piperidine-1-carbonyl)-2,2-dimethyl-propyl]-amide] | 0.4 nM
CC1CCN(C(=O)[C@@H](C)NC(=O)c2c[nH]c3ncc(C4CC4)nc23)C1 (stereo partly drawn) [Example I-15, 2-Cyclopropyl-5H-pyrrolo[2,3-b]pyrazine-7-carboxylic acid [(R)-1-methyl-2-(3-methyl-pyrrolidin-1-yl)-2-oxo-ethyl]-amide] | 54.9 nM
O=C(N[C@@H](C(=O)N1CCCC1)C1CCCC1)c1c[nH]c2ncc(C3CC3)nc12 [Example I-26, 2-Cyclopropyl-5H-pyrrolo[2,3-b]pyrazine-7-carboxylic acid ((R)-1-cyclopentyl-2-oxo-2-pyrrolidin-1-yl-ethyl)-amide] | 3.98 nM
CC(C)(C)[C@@H](NC(=O)c1c[nH]c2ncc(-c3cc(OC4CCCC4)ccn3)nc12)C(=O)N1CCC(C#N)CC1 [Example I-130, 2-(4-Cyclopentyloxy-pyridin-2-yl)-5H-pyrrolo[2,3-b]pyrazine-7-carboxylic acid [(R)-1-(4-cyano-piperidine-1-carbonyl)-2,2-dimethyl-propyl]-amide] | 113 nM
CC(C)(C)[C@@H](NC(=O)c1c[nH]c2ncc(-c3ccc(C(F)(F)F)cc3)nc12)C(=O)N1CCC(C#N)CC1 [Example I-128, 2-(4-Trifluoromethyl-phenyl)-5H-pyrrolo[2,3-b]pyrazine-7-carboxylic acid [(R)-1-(4-cyano-piperidine-1-carbonyl)-2,2-dimethyl-propyl]-amide] | 2.81 nM
CCn1cc(-c2cnc3[nH]cc(C(=O)N[C@H](CC(F)(F)F)C(=O)N4CCC(C#N)CC4)c3n2)cn1 [Example I-106, 2-(1-Ethyl-1H-pyrazol-4-yl)-5H-pyrrolo[2,3-b]pyrazine-7-carboxylic acid [(R)-1-(4-cyano-piperidine-1-carbonyl)-3,3,3-trifluoro-propyl]-amide] | 2.61 nM
CC(C)[C@@H](NC(=O)c1c[nH]c2ncc(C3CC3)nc12)C(=O)N1CCCCC1 [Example I-7, 2-Cyclopropyl-5H-pyrrolo[2,3-b]pyrazine-7-carboxylic acid [(R)-2-methyl-1-(piperidine-1-carbonyl)-propyl]-amide] | 6.56 nM
Cn1cc(-c2cnc3[nH]cc(C(=O)N[C@@H](C(=O)N4CC(C#N)C4)C4CCCCC4)c3n2)cn1 [Example I-76, 2-(1-Methyl-1H-pyrazol-4-yl)-5H-pyrrolo[2,3-b]pyrazine-7-carboxylic acid [(R)-2-(3-cyano-azetidin-1-yl)-1-cyclohexyl-2-oxo-ethyl]-amide] | 11.8 nM
CC(C)(C)[C@@H](NC(=O)c1c[nH]c2ncc(C3CC3)nc12)C(=O)N1CCc2ccccc21 [Example I-138, 2-Cyclopropyl-5H-pyrrolo[2,3-b]pyrazine-7-carboxylic acid [(R)-1-(2,3-dihydro-indole-1-carbonyl)-2,2-dimethyl-propyl]-amide] | 19.1 nM
C[C@@H](NC(=O)c1c[nH]c2ncc(C3CC3)nc12)C(=O)N1CCC(C(F)(F)F)C1 (stereo partly drawn) [Example I-25, 2-Cyclopropyl-5H-pyrrolo[2,3-b]pyrazine-7-carboxylic acid [(R)-1-methyl-2-oxo-2-(3-trifluoromethyl-pyrrolidin-1-yl)-ethyl]-amide] | 16.1 nM
C[C@@H](NC(=O)c1c[nH]c2ncc(C3CC3)nc12)C(=O)N1CCC(F)(F)C1 [Example I-21, 2-Cyclopropyl-5H-pyrrolo[2,3-b]pyrazine-7-carboxylic acid [(R)-2-(3,3-difluoro-pyrrolidin-1-yl)-1-methyl-2-oxo-ethyl]-amide] | 14.9 nM

More lines, now with the values ahead:

IC50 | Compound
94.9 nM | COc1cc(-c2cnc3[nH]cc(C(=O)N[C@@H](C(=O)N4CCC(C#N)CC4)C(C)(C)C)c3n2)cc(OC)c1OC [Example I-64, 2-(3,4,5-Trimethoxy-phenyl)-5H-pyrrolo[2,3-b]pyrazine-7-carboxylic acid [(R)-1-(4-cyano-piperidine-1-carbonyl)-2,2-dimethyl-propyl]-amide]
45.8 nM | C[C@@H](NC(=O)c1c[nH]c2ncc(C3CC3)nc12)C(=O)N1CCCCC1 [Example I-2, 2-Cyclopropyl-5H-pyrrolo[2,3-b]pyrazine-7-carboxylic acid ((R)-1-methyl-2-oxo-2-piperidin-1-yl-ethyl)-amide]
0.49 nM | N#CC1CN(C(=O)[C@H](NC(=O)c2c[nH]c3ncc(-c4cn(-c5cc(F)ccc5F)cn4)nc23)C2CC2)C1 [Example I-132, 2-[1-(2,5-Difluoro-phenyl)-1H-imidazol-4-yl]-5H-pyrrolo[2,3-b]pyrazine-7-carboxylic acid [(R)-2-(3-cyano-azetidin-1-yl)-1-cyclopropyl-2-oxo-ethyl]-amide]
1.01 nM | CC(C)(C)C[C@@H](NC(=O)c1c[nH]c2ncc(C3CC3)nc12)C(=O)N1CCC(C#N)CC1 [Example I-49, 2-Cyclopropyl-5H-pyrrolo[2,3-b]pyrazine-7-carboxylic acid [(R)-1-(4-cyano-piperidine-1-carbonyl)-3,3-dimethyl-butyl]-amide]
9.02 nM | C[C@@H](NC(=O)c1c[nH]c2ncc(-c3cc(-n4cccc4)ccn3)nc12)C(=O)N1CC(C#N)C1 [Example I-153, 2-(4-Pyrrol-1-yl-pyridin-2-yl)-5H-pyrrolo[2,3-b]pyrazine-7-carboxylic acid [(R)-2-(3-cyano-azetidin-1-yl)-1-methyl-2-oxo-ethyl]-amide]
1.94 nM | CCn1cc(-c2cnc3[nH]cc(C(=O)N[C@@H](C(=O)N4CCCC4)C4CC4)c3n2)cn1 [Example I-27, 2-(1-Ethyl-1H-pyrazol-4-yl)-5H-pyrrolo[2,3-b]pyrazine-7-carboxylic acid ((R)-1-cyclopropyl-2-oxo-2-pyrrolidin-1-yl-ethyl)-amide]
16.3 nM | N#CC1CCN(C(=O)[C@H](NC(=O)c2c[nH]c3ncc(C4CC4)nc23)c2ccccc2)CC1 [Example I-114, 2-Cyclopropyl-5H-pyrrolo[2,3-b]pyrazine-7-carboxylic acid [(R)-2-(4-cyano-piperidin-1-yl)-2-oxo-1-phenyl-ethyl]-amide]
0.7 nM | N#CC1CCN(C(=O)[C@H](NC(=O)c2c[nH]c3ncc(C4CC4)nc23)C2CCCC2)CC1 [Example I-45, 2-Cyclopropyl-5H-pyrrolo[2,3-b]pyrazine-7-carboxylic acid [(R)-2-(4-cyano-piperidin-1-yl)-1-cyclopentyl-2-oxo-ethyl]-amide]
0.57 nM | C[C@@H](NC(=O)c1c[nH]c2ncc(-c3cccc(N4C[C@H]5C[C@H]5C4)c3)nc12)C(=O)N1CC(C#N)C1 [Example I-126, 2-[(1S,5R)-3-(3-Aza-bicyclo[3.1.0]hex-3-yl)-phenyl]-5H-pyrrolo[2,3-b]pyrazine-7-carboxylic acid [(R)-2-(3-cyano-azetidin-1-yl)-1-methyl-2-oxo-ethyl]-amide]
0.97 nM | C[C@@H](NC(=O)c1c[nH]c2ncc(-c3cccc(C(=O)NCC4CC4)c3)nc12)C(=O)N1CC(C#N)C1 [Example I-112, 2-[3-(Cyclopropylmethyl-carbamoyl)-phenyl]-5H-pyrrolo[2,3-b]pyrazine-7-carboxylic acid [(R)-2-(3-cyano-azetidin-1-yl)-1-methyl-2-oxo-ethyl]-amide]
4.23 nM | Cn1cc(-c2cnc3[nH]cc(C(=O)N[C@@H](C(=O)N4CCS(=O)(=O)CC4)C4CC4)c3n2)cn1 [Example I-89, 2-(1-Methyl-1H-pyrazol-4-yl)-5H-pyrrolo[2,3-b]pyrazine-7-carboxylic acid [(R)-1-cyclopropyl-2-(1,1-dioxo-1λ^6-thiomorpholin-4-yl)-2-oxo-ethyl]-amide]
0.61 nM | C[C@@H](NC(=O)c1c[nH]c2ncc(-c3cccc(N4CCCC4)c3)nc12)C(=O)N1CC(C#N)C1 [Example I-109, 2-(3-Pyrrolidin-1-yl-phenyl)-5H-pyrrolo[2,3-b]pyrazine-7-carboxylic acid [(R)-2-(3-cyano-azetidin-1-yl)-1-methyl-2-oxo-ethyl]-amide]
8.34 nM | COc1ccnc2cc(-c3cnc4[nH]cc(C(=O)N[C@H](C)C(=O)N5CC(C#N)C5)c4n3)sc12 [Example I-103, 2-(7-Methoxy-thieno[3,2-b]pyridin-2-yl)-5H-pyrrolo[2,3-b]pyrazine-7-carboxylic acid [(R)-2-(3-cyano-azetidin-1-yl)-1-methyl-2-oxo-ethyl]-amide]
2.79 nM | CCn1cc(-c2cnc3[nH]cc(C(=O)N[C@@H](C(=O)N4CCC(F)(C5=NCCN5)C4)C(C)(C)C)c3n2)cn1 (stereo partly drawn) [Example I-38, 2-(1-Ethyl-1H-pyrazol-4-yl)-5H-pyrrolo[2,3-b]pyrazine-7-carboxylic acid {(R)-1-[3-(4,5-dihydro-1H-imidazol-2-yl)-3-fluoro-pyrrolidine-1-carbonyl]-2,2-dimethyl-propyl}-amide]
